These results are taken from ChEMBL document CHEMBL2321807, “Synthesis and in vitro biological evaluation of lipophilic cation conjugated photosensitizers for targeting mitochondria” (Bioorg Med Chem, 2013).

The structures appear in SMILES notation. Activity calls are given as the source filed them. No cut-off for these calls is given here.

By IC50 is commonly meant the concentration at which inhibition is half-maximal. Read a high IC50 as a need for much substance. As a reminder, the logD is the decadic logarithm of the distribution of all forms, ionised or not, between an organic phase and buffer at a given pH. Read a high logD as a more lipophilic compound.

In data set [1] the test system is Colon 26. Put plainly: Drug uptake in mouse Colon 26 cells at 5 to 10 uM after 24 hrs by fluorimetric analysis. The data set is classed as ADME, cell-based. The settings on record: colon 26, 24 h.
The subject of data set [2] is Colon 26. Description: Phototoxicity against mouse Colon 26 cells incubated for 24 hrs prior to irradiation measured after 30 mins by MTT assay. Type of data set: functional, cell-based. The settings on record: Colon 26, light or radiation study. (In general: Tetrazolium dyes change colour on reduction, which living cells bring about.)
The test system of data set [3] is Colon 26. Put plainly: Drug uptake in mouse Colon 26 cells at 5 uM after 24 hrs by fluorimetric analysis relative to CMP-OH. Type of data set: ADME, cell-based. The settings on record: colon 26, 24 h.
A short description of data set [4]: Drug uptake in human MCF7 cells mitochondria at 5 uM after 14 hrs by Rh-123-based dual fluorescence staining method. Type of data set: ADME, cell-based. The settings on record: mcf7, 14 h.
Data set [5] concerns Colon 26. Put plainly: Drug uptake in mouse Colon 26 cells at 10 uM after 24 hrs by fluorimetric analysis relative to CMP-OH. The settings on record: colon 26, 24 h. The data set is classed as ADME, cell-based.
Data set [6] in a line: n-octanol-water distribution coefficient, log D of the compound at pH 7.4 by shake flask method. The data set is classed as physicochemical.
The test system of data set [7] is Colon 26. Description: Phototoxicity against mouse Colon 26 cells up to 5 uM incubated for 24 hrs prior to irradiation measured after 30 mins by MTT assay. The data set is classed as functional.
Data set [8] relates to Colon 26. Put plainly: Dark toxicity against mouse Colon 26 cells up to 5 uM after 24 hrs by MTT assay. The data set is classed as functional, cell-based.
Data set [9] concerns Colon 26. Description: Drug uptake in mouse Colon 26 cells assessed per cell at 5 uM after 24 hrs by fluorimetric analysis. Type of data set: ADME, cell-based. The settings on record: colon 26, 24 h.
Data set [10] in a line: Drug uptake in human MCF7 cells cytoplasm at 5 uM after 14 hrs by Rh-123-based dual fluorescence staining method. Type of data set: ADME, cell-based. The settings on record: mcf7, 14 h.

For the compound `C1=Cc2nc1c(-c1ccccc1)c1ccc(s1)c(-c1ccccc1)c1nc(c(-c3ccc(OCCC[P+](c4ccccc4)(c4ccccc4)c4ccccc4)cc3)c3ccc(s3)c2-c2ccccc2)C=C1.[Br-]`, the Drug uptake result is on record as “Active” in data set [1] and “Not Active” in data set [4]. This compound also came in with an IC50 in [2] of 900 nM. Besides, the “fold change (FC)” value was determined as 18.9 in data set [3] and 14 in data set [5]. For the same compound, the logD in [6] turned out to be 2.04. In [7], this compound displayed an Activity of more than 70%. Besides, the result in data set [8] was inactive.

With `CCN(CC)c1ccc2c(-c3ccccc3C(=O)O)c3ccc(=[N+](CC)CC)cc-3oc2c1` [RHODAMINE B], the logD in [6] worked out at 2.07.

For the compound `CCN(CC)c1ccc2c(-c3ccccc3C(C)=O)c3ccc(=[N+](CC)CC)cc-3oc2c1`, the outcome in data set [7] and in data set [8] was inactive.

In the case of `C1=Cc2nc1c(-c1ccccc1)c1ccc(s1)c(-c1ccccc1)c1nc(c(-c3ccc(OCCC[P+](c4ccccc4)(c4ccccc4)c4ccccc4)cc3)c3ccc(s3)c2-c2ccc(OCCC[P+](c3ccccc3)(c3ccccc3)c3ccccc3)cc2)C=C1.[Br-].[Br-]`, the Drug uptake entry in data set [1] and in data set [4] was “Active” throughout. Also, the IC50 in data set [2] is 1670 nM. Further, the “fold change (FC)” value in data set [3] is recorded as 8.3; in data set [5], 7. For the same compound, the logD in data set [6] came to 1.79. The same compound gave an Activity in data set [7] of more than 70%. The outcome in data set [8] was inactive.

In data set [9], `Oc1ccc(-c2c3nc(c(-c4ccccc4)c4ccc(s4)c(-c4ccccc4)c4nc(c(-c5ccccc5)c5ccc2s5)C=C4)C=C3)cc1` yielded a Drug uptake of 0.19 fmol. The logD in [6] was found to be 2.3. The result in [7] and in [8] was inactive.

On to `CCN(CC)c1ccc2c(-c3ccccc3C(=O)OCCCOc3ccc(-c4c5nc(c(-c6ccccc6)c6ccc(s6)c(-c6ccccc6)c6nc(c(-c7ccccc7)c7ccc4s7)C=C6)C=C5)cc3)c3ccc(=[N+](CC)CC)cc-3oc2c1.[Cl-]`, for which the Drug uptake entry in [10], in data set [1] and in [4] was “Active” throughout. The compound further registered an IC50 in data set [2] of 2360 nM. Further, the “fold change (FC)” value in [3] is given as 10.6; in [5], 7. The compound further displayed a logD in data set [6] of 2.01. This compound also came in with an Activity in [7] of more than 70%. Also, in data set [8], the outcome was inactive.

On to `C1=Cc2nc1c(-c1ccccc1)c1nc(c(-c3ccccc3)c3ccc([nH]3)c(-c3ccccc3)c3ccc([nH]3)c2-c2ccccc2)C=C1`, for which the result in [8] was inactive.
